According to patent publication US20080311126A1, “Antisense Oligonucleotides Directed to Ribonucleotide Reducatase R2 and Uses Thereof in Combination Therapies for the Treatment of Cancer” (Genesense Technologies, Inc, priority 2004, published 2008):
Oligonucleotides are written 5' to 3', each unit as a sugar letter and its base; * is a phosphorothioate linkage, no mark a phosphodiester; rarer units and linkages stand in square brackets, end groups in braces. Plain capitals give the bases only. d = 2'-deoxy (DNA)

Tests used:
Type in all cases: cell-based, human
[1] = system: A549 lung cell carcinoma; assay: Relative colony forming efficiency (Example 17, Table 13); conditions: averages of 2-8 determinations
In short: (§1)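 Read-out: methylene blue-stained colonies scored and expressed as percent of control, given as % inhibition of colony forming ability. Cells had been exposed for four hours to phosphorothioate deoxyribonucleotides, usually 0.2 μM, complexed with 2.5 μg DOTMA/DOPE.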

[2] = system: MDA-MB-231 breast cell adenocarcinoma; assay: as above; conditions: averages of 2-8 determinations
In short: as §1

[3] = system: PC-3 prostrate cell adenocarcinoma; assay: as above; conditions: averages of 2-8 determinations
In short: as §1

[4] = system: T24 bladder cell carcinoma; assay: as above; conditions: averages of 2-8 determinations
In short: as §1

[5] = system: HepG2 hepatocellular carcinoma; assay: as above; conditions: averages of 2-8 determinations
In short: as §1

[6] = system: Hela S3 cells; assay: Relative colony forming efficiency, lipofectin +/- oligonucleotide 4 hours; conditions: Hela S3 cervix carcinoma cells; averages of 2-8 determinations
Method: Colony forming efficiency was determined using standard protocols. Briefly, the cells were cultured for 24 hours at 37° C. in growth medium with 10% fetal bovine serum. The cells were washed in 5 ml phosphate buffered saline, pH 7.2, once prior to lipofectin +/−oligonucleotide treatment.
The test oligonucleotides were added to cell cultures in the presence of 2.5 μg of DOTMA/DOPE (Lipofectin; Life Technologies, Inc.) for four hours. The oligonucleotide was tested at 0.2 μM unless otherwise indicated. Controls were the cultures treated with lipofectin but without the oligonucleotide. After 4 hours the medium containing the oligonucleotide was removed and washed with 5 ml of growth medium. The cells were then cultured in growth medium containing 10% fetal bovine serum for seven to ten days. Surviving cells were visualized by methylene blue staining, and colonies were scored. In some experiments cell aliquots were removed from the culture and viability was determined using the trypan blue exclusion test. Results were analyzed as percent of surviving cells compared to control cells.
AS-II-336-20 was tested for the ability to inhibit the proliferation of human tumour cells (Hela). Hela S3 cells (American Type Culture Collection, Rockville, Md., ATCC), and a Hela cell line (Hela 1 mM) previously selected for resistance to the antitumour agent, hydroxyurea, were tested (see results in Table 11). Two experiments were undertaken with Hela S3 cells. […] The same experiment was repeated with the Hela 1 mM cell line and with varying concentrations of the antisense construct AS-II-336-20 (see results in Table 11) with similar results, […] was an effective concentration for inhibiting colony formation.
To test the antisense effects of many of these sequences as phosphorthioate deoxyribonucleotides, they were examined in relative colony forming experiments conducted as described in Example 16 with a series of human tumour cell lines. The results (shown as % inhibition of colony forming ability) obtained with cancer cells derived from the bladder, breast, lung, colon, pancreas, prostate, liver and cervix, are shown in Table 13. The specific cell lines employed are as follows:
T24=bladder cell carcinoma HCT116=colon cell carcinoma A549=lung cell carcinoma MDA-MB-231=breast cell adenocarcinoma […]=pancreatic cell carcinoma PC-3=prostrate cell adenocarcinoma HepG2=hepatocellular carcinoma HeLaS3=cells isolated from a carcinoma of the cervix T-47D=breast ductal carcinoma H596=lung adenosquamous carcinoma cells Colo320=colon cell adenocarcinoma

[7] = system: HCT116 colon cell carcinoma; assay: Relative colony forming efficiency (Example 17, Table 13); conditions: averages of 2-8 determinations
In short: as §1

[8] = system: MDA PaCa-2 pancreatic cell carcinoma; assay: as above; conditions: MIA PaCa-2 pancreatic cell carcinoma; averages of 2-8 determinations
In short: as §1

Sequence	Reduced relative colony forming efficiency, A549 (% inhibition of colony forming ability) [1]	Reduced relative colony forming efficiency, MDA-MB-231 (% inhibition of colony forming ability) [2]	Reduced relative colony forming efficiency, PC-3 (% inhibition of colony forming ability) [3]	Reduced relative colony forming efficiency, T24 (% inhibition of colony forming ability) [4]	Reduced relative colony forming efficiency, HepG2 (% inhibition of colony forming ability) [5]	Reduced relative colony forming efficiency, Hela S3 (% inhibition of colony forming ability) [6]	Reduced relative colony forming efficiency, HCT116 (% inhibition of colony forming ability) [7]	Reduced relative colony forming efficiency, MIA PaCa-2 (% inhibition of colony forming ability) [8]
AACTTCTTGGCTAAATCGCT (antisense dA*dA*dC*dT*dT*dC*dT*dT*dG*dG*dC*dT*dA*dA*dA*dT*dC*dG*dC*dT) [AS-II-634-20]	57.76%	92.44%	77.86%	83.52%	95.78%	48.94%	–	–
ACCCCTCACTCCAGCAGCCT (antisense dA*dC*dC*dC*dC*dT*dC*dA*dC*dT*dC*dC*dA*dG*dC*dA*dG*dC*dC*dT) [AS-II-110-20]	89.38%	90.92%	92.06%	87.78%	97.14%	53.98%	71.69%	47.51%
CCTCCTCGGCGGTCCAAAAG (antisense dC*dC*dT*dC*dC*dT*dC*dG*dG*dC*dG*dG*dT*dC*dC*dA*dA*dA*dA*dG) [AS-II-494-20]	33.85%	54.78%	30.6%	54.23%	93.37%	43.62%	50.28%	25.31%
GGAAGATGACAAAGCGGCGG (antisense dG*dG*dA*dA*dG*dA*dT*dG*dA*dC*dA*dA*dA*dG*dC*dG*dG*dC*dG*dG) [AS-II-425-20]	57.38%	89.75%	75.65%	90.37%	97.89%	63.09%	–	65.2%
GGCATCAGTCCTCGTTTCTT (antisense dG*dG*dC*dA*dT*dC*dA*dG*dT*dC*dC*dT*dC*dG*dT*dT*dT*dC*dT*dT) [AS-II-933-20]	53.52%	64.39%	36.91%	64.84%	–	26.86%	67.24%	35.68%
GGTTTTCTCTCAGCAGCGGC (antisense dG*dG*dT*dT*dT*dT*dC*dT*dC*dT*dC*dA*dG*dC*dA*dG*dC*dG*dG*dC) [AS-II-404-20]	52.17%	85.83%	77.08%	84.26%	84.79%	58.37%	–	17.84%
TATCTCTCCTCGGGTTTCAG (antisense dT*dA*dT*dC*dT*dC*dT*dC*dC*dT*dC*dG*dG*dG*dT*dT*dT*dC*dA*dG) [AS-II-549-20]	30.57%	40.13%	–	45.46%	84.04%	27.8%	47.83%	17.01%
TCCTTTATCCCACAACACTC (antisense dT*dC*dC*dT*dT*dT*dA*dT*dC*dC*dC*dA*dC*dA*dA*dC*dA*dC*dT*dC) [AS-II-2067-20]	64.71%	49.68%	–	49.6%	90.36%	24.88%	47.16%	41.08%
TCGCTCCACCAAGTTTTCAT (antisense dT*dC*dG*dC*dT*dC*dC*dA*dC*dC*dA*dA*dG*dT*dT*dT*dT*dC*dA*dT) [AS-II-619-20]	65.67%	91.08%	88.01%	86.3%	92.02%	31.22%	–	39.83%
TGTAAACCCTCATCTCTGCT (antisense dT*dG*dT*dA*dA*dA*dC*dC*dC*dT*dC*dA*dT*dC*dT*dC*dT*dG*dC*dT) [AS-II-981-20]	74.25%	91.48%	85.16%	86.3%	95.03%	69.43%	66.84%	–
TTAGTCTTTCCTTCCAGTGA (antisense dT*dT*dA*dG*dT*dC*dT*dT*dT*dC*dC*dT*dT*dC*dC*dA*dG*dT*dG*dA) [AS-II-1254-20]	36.74%	–	73.31%	41.53%	83.28%	7.64%	28.54%	3.32%
